Where a name gives a salt, the structure may show the parent alone.
Biological target: NLRP3 (Homo sapiens, UniProt Q96P20)
Assay: THP-1 cells pyroptosis assay (LPS + nigericin, resazurin read-out)
Format: cell-based
Parameters: Seed THP-1 cells (25,000 cells/well) containing 1.0 μg/ml LPS; host or cells: THP-1 cells
Conditions: NLRP3 inhibitory activity, 1 μg/ml LPS, 5 μM nigericin
Protocol: The cells were routinely passaged and grown to confluency (˜10^6 cells/ml). On the day of the experiment, THP-1 cells were harvested and resuspended into RPMI medium (without FBS). The cells were then counted and viability (>90%) checked by Trypan blue (Sigma #T8154). […] To this diluted cell solution was added LPS (Sigma #L4524) to give a 1 μg/ml Final Assay Concentration (FAC). 40 μl of the final preparation was aliquoted into each well of a 96-well plate. The plate thus prepared was used for compound screening. The following method step-by-step assay was followed for compound screening. • 1. […] Incubate for 3 hrs at 37° C., 5% CO2 • 4. Add 5 μl nigericin (Sigma #N7143) (FAC 5 μM) to all wells • 5. Incubate for 1 hr at 37° C., 5% CO2 • 6. At the end of the incubation period, spin plates at 300×g for 3 mins and remove supernatant • 7. Then add 50 μl of resazurin (Sigma #R7017) (FAC 100 μM resazurin in RPMI medium without FBS) and incubate plates for a further 1-2 hrs at 37° C. and 5% CO2 • 8.

NLRP3, sequence (Q96P20 whole entry): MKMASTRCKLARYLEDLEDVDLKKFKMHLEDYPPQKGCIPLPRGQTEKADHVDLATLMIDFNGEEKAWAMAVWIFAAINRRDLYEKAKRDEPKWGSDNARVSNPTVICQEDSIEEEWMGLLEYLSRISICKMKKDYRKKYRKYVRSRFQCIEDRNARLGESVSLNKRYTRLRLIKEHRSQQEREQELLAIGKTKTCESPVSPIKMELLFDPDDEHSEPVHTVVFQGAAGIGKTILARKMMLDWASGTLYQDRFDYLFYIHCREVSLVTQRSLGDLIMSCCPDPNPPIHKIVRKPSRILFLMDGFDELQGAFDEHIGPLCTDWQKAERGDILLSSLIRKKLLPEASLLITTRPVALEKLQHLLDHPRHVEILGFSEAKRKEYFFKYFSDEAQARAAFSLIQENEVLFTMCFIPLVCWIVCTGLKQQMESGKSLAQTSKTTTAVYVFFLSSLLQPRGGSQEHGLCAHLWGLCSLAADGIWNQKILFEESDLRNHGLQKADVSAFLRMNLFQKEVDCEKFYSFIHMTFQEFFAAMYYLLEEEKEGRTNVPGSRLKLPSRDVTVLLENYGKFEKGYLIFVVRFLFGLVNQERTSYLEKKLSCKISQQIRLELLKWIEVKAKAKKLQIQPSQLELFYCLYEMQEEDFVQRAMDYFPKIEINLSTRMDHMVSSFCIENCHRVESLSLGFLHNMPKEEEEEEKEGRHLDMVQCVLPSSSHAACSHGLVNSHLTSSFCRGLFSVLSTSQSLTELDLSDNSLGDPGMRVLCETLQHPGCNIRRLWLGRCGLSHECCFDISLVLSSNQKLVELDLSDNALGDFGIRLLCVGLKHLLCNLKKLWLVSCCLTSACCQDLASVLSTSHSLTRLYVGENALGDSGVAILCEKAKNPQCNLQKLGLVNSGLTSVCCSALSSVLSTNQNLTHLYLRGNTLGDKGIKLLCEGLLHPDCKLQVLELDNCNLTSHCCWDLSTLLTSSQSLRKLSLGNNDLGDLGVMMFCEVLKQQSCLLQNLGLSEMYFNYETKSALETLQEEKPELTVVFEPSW

Structure (SMILES) | IC50
CC(C)(O)c1coc(S(=O)(=O)NC(=O)Cc2cccc(I)c2)c1 [Example 93, N-((4-(2-Hydroxypropan-2-yl)furan-2-yl)sulfonyl)-2-(3-iodophenyl)acetamide] | 5 to 10 µM
CCOC(=O)c1cc(S(=O)(=O)NC(=O)Nc2c3c(cc4c2CCC4)CCC3)nn1C [Example 79, Ethyl 3-(N-((1,2,3,5,6,7-hexahydro-s-indacen-4-yl)carbamoyl)sulfamoyl)-1-methyl-1H-pyrazole-5-carboxylate] | 0.5 to 1 µM
CC(C)c1cc(F)cc(C(C)C)c1CC(=O)NS(=O)(=O)c1cc(C(C)(C)O)n(C(C)C)n1 [Example 29, 2-(4-Fluoro-2,6-diisopropylphenyl)-N-((5-(2-hydroxypropan-2-yl)-1-isopropyl-1H-pyrazol-3-yl)sulfonyl)acetamide] | 5 to 10 µM
CC(C)n1ccc(S(=O)(=O)NC(=O)Nc2c3c(c(Br)c4c2CCC4)CCC3)n1 [Example 38, N-((8-Bromo-1,2,3,5,6,7-hexahydro-s-indacen-4-yl)carbamoyl)-1-isopropyl-1H-pyrazole-3-sulfonamide] | < 0.25 µM
CC(C)c1cc(F)cc(C(C)C)c1CC(=O)NS(=O)(=O)c1ncc(C(C)(C)O)s1 [Example 30, 2-(4-Fluoro-2,6-diisopropylphenyl)-N-((5-(2-hydroxypropan-2-yl)thiazol-2-yl)sulfonyl)acetamide] | 1 to 5 µM
COc1cc(-c2ccc3c(c2NC(=O)N[S+]([O-])c2ccn(C(C)C)n2)CCC3)ccn1 (centres unmarked) [Example 23, 1-Isopropyl-N-((5-(2-methoxypyridin-4-yl)-2,3-dihydro-1H-inden-4-yl)carbamoyl)-1H-pyrazole-3-sulfinamide] | 1 to 5 µM
CC(C)c1cc(F)cc(C(F)(F)F)c1NC(=O)NS(=O)(=O)c1ccn(C(C)C)n1 [Example 70, N-((4-Fluoro-2-isopropyl-6-(trifluoromethyl)phenyl)carbamoyl)-1-isopropyl-1H-pyrazole-3-sulfonamide] | 5 to 10 µM
CC(C)c1cc(F)cc(C(C)C)c1CC(=O)NS(=O)(=O)c1ccn(C(C)C)n1 [Example 26, 2-(4-Fluoro-2,6-diisopropylphenyl)-N-((1-isopropyl-1H-pyrazol-3-yl)sulfonyl)acetamide] | 1 to 5 µM
Cc1nn(C(C)C)cc1S(=O)(=O)NC(=O)Nc1c2c(cc3c1CCC3)CCC2 [Example 43, N-((1,2,3,5,6,7-Hexahydro-s-indacen-4-yl)carbamoyl)-1-isopropyl-3-methyl-1H-pyrazole-4-sulfonamide, sodium salt] | 0.25 to 0.5 µM
CC(C)c1cc(F)cc2c1C(C(=O)NS(=O)(=O)c1cc(C(C)(C)O)cs1)CC2(C)C (single isomer, unassigned) [Example 9, 5-Fluoro-N-((4-(2-hydroxypropan-2-yl)thiophen-2-yl)sulfonyl)-7-isopropyl-3,3-dimethyl-2,3-dihydro-1H-indene-1-carboxamide, potassium salt (rotamer P2)] | 5 to 10 µM
CC(C)c1cc(F)cc(C(C)C)c1CC(=O)NS(=O)(=O)c1cnc(C(C)(C)O)s1 [Example 27, 2-(4-Fluoro-2,6-diisopropylphenyl)-N-((2-(2-hydroxypropan-2-yl)thiazol-5-yl)sulfonyl)acetamide] | 1 to 5 µM
CC(C)c1cccc(O[C@@H]2CCOC2)c1NC(=O)NS(=O)(=O)c1ccn(C(C)C)n1 [Example 85, (R)-1-Isopropyl-N-((2-isopropyl-6-((tetrahydrofuran-3-yl)oxy)phenyl)carbamoyl)-1H-pyrazole-3-sulfonamide] | 5 to 10 µM
CC(C)c1cc(F)cc2c1C(C(=O)NS(=O)(=O)c1cc(C(=O)N(C)C)n(C)n1)CC2(C)C (centres unmarked) [Example 11, 3-(N-(5-Fluoro-7-isopropyl-3,3-dimethyl-2,3-dihydro-1H-indene-1-carbonyl)sulfamoyl)-N,N,1-trimethyl-1H-pyrazole-5-carboxamide] | 5 to 10 µM
CC(C)c1cc(F)cc(C(C)C)c1CC(=O)NS(=O)(=O)c1ccc2ccccc2c1 [Example 96, 2-(4-Fluoro-2,6-diisopropylphenyl)-1-(2-naphthylsulfonylamino)-1-ethanone] | 1 to 5 µM
CC(C)(O)c1coc(S(=O)(=O)NC(=O)Cc2cc(C(F)(F)F)cc(C(F)(F)F)c2)c1 [Example 98, 2-(3,5-bis(Trifluoromethyl)phenyl)-N-((4-(2-hydroxy-propan-2-yl)furan-2-yl)sulfonyl)acetamide] | 1 to 5 µM
CCOC(=O)CNC(=O)Nc1c2c(cc(C)c1-c1ccnc(OC3CCN(C)CC3)c1)CCC2 [Example 97, Ethyl 2-(3-(6-methyl-5-(2-((1-methylpiperidin-4-yl)oxy)pyridin-4-yl)-2,3-dihydro-1H-inden-4-yl)ureido)acetate] | 1 to 5 µM
CC(C)(O)c1coc(S(=O)(=O)NC(=O)Cc2cc(Cl)cc(OC(F)(F)F)c2)c1 [Example 91, 2-(3-Chloro-5-(trifluoromethoxy)phenyl)-N-((4-(2-hydroxypropan-2-yl)furan-2-yl)sulfonyl)acetamide] | 1 to 5 µM
CC(C)OS(=O)(=O)NC(=O)Nc1c2c(cc3c1CCC3)CCC2 [Example 87, Isopropyl (1,2,3,5,6,7-hexahydro-s-indacen-4-yl)carbamoylsulfamate, sodium salt] | 1 to 5 µM
CC(C)c1cc(F)cc(C(C)C)c1CC(=O)NS(=O)(=O)c1cc(C(C)(C)O)n(C)n1 [Example 32, 2-(4-Fluoro-2,6-diisopropylphenyl)-N-((5-(2-hydroxypropan-2-yl)-1-methyl-1H-pyrazol-3-yl)sulfonyl)acetamide, ammonium salt] | 1 to 5 µM
CC(C)c1cccc(C(C)C)c1NC(=O)NS(=O)(=O)c1ccn(C(C)C)n1 [Example 68, N-((2,6-Diisopropylphenyl)carbamoyl)-1-isopropyl-1H-pyrazole-3-sulfonamide, sodium salt] | 1 to 5 µM
CC(C)c1cccc(O[C@H]2CCOC2)c1NC(=O)NS(=O)(=O)c1ccn(C(C)C)n1 [Example 86, (S)-1-Isopropyl-N-((2-isopropyl-6-((tetrahydrofuran-3-yl)oxy)phenyl)carbamoyl)-1H-pyrazole-3-sulfonamide] | 1 to 5 µM
CC(C)c1cc(F)cc(C(C)C)c1NC(=O)NS(=O)(=O)c1ccn(CC(F)(F)F)n1 [Example 78, N-((4-Fluoro-2,6-diisopropylphenyl)carbamoyl)-1-(2,2,2-trifluoroethyl)-1H-pyrazole-3-sulfonamide, sodium salt] | 1 to 5 µM
CC(C)c1cc(C#N)cc(C(C)C)c1NC(=O)NS(=O)(=O)c1cnn(C(C)C)c1 [Example 75, N-((4-Cyano-2,6-diisopropylphenyl)carbamoyl)-1-isopropyl-1H-pyrazole-4-sulfonamide] | 1 to 5 µM
CC(C)c1cc(F)cc2c1C(C(=O)NS(=O)(=O)c1ccn(C(C)C)n1)CC2(C)C (centres unmarked) [Example 10, 5-Fluoro-7-isopropyl-N-((1-isopropyl-1H-pyrazol-3-yl)sulfonyl)-3,3-dimethyl-2,3-dihydro-1H-indene-1-carboxamide, potassium salt (rotamer P2)] | 5 to 10 µM
CC(C)c1cc(F)cc(C(C)C)c1NC(=O)NS(=O)(=O)c1cc(C(C)(C)O)n(C(C)C)n1 [Example 50, N-((4-Fluoro-2,6-diisopropylphenyl)carbamoyl)-5-(2-hydroxypropan-2-yl)-1-isopropyl-1H-pyrazole-3-sulfonamide] | 0.25 to 0.5 µM
COc1cc(-c2ccc3c(c2NC(=O)NCc2nnn[nH]2)CCC3)ccn1 [Example 88, 1((1H-Tetrazol-5-yl)methyl)-3-(5-(2-methoxypyridin-4-yl)-2,3-dihydro-1H-inden-4-yl)urea] | 5 to 10 µM

Reference: US20220106289A1, “NLRP3 INHIBITORS” (INFLAZOME LIMITED, priority 2018, published 2022)
